Results taken from US4298613A, “Agricultural heterocyclic sulfenamides” (E. I. Du Pont de Nemours and Company, priority 1980, dated 1981).

Assays:
[1] = tested on: Puccinia graminis var. tritici; assay type: in vivo; settings: 20 ppm, wheat seedlings, 24 hours humidity chamber at 20° C. then 7 days
Erysiphe cichoracearum [2] = assay: Control of cucumber powdery mildew in a photostability test (Example 18); assay type: in vivo; settings: 20 ppm, cucumber seedlings, 3500 foot candles xenon arc 16 hours, incubated 7 days
Procedure: (§1) Compounds of this invention are dissolved in acetone in an amount equal to 6% of the final volume and then suspended at a concentration of 20 ppm in purified water containing 25 ppm of the surfactant Alkanol® XC (sodium alkyl naphthalene sulfonate). This suspension is sprayed to the point of run-off in cucumber seedlings. When the foliage is dry, the plants are exposed to 3500 foot candles of light from a xenon arc source for a period of 16 hours. This light source approximates the spectrum of natural sunlight, and is used to assess photostability of the compounds of this invention on plant foliage. The following day, the plants are inoculated with a spore suspension of the fungus Erysiphe cichoracearum and incubated in a growth room for 7 days. Disease ratings are then made.

Erysiphe cichoracearum [3] = assay: Control of cucumber powdery mildew in a residual wash-off test (Example 17); assay type: in vivo; settings: 20 ppm, cucumber seedlings, 1/2 inch simulated rainfall, incubated 7 days
Procedure: (§2) Compounds of this invention are dissolved in acetone in an amount equal to 6% of the final volume and then suspended at a concentration of 20 ppm in purified water containing 25 ppm of the surfactant Alkanol® XC (sodium alkyl naphthalene sulfonate). This suspension is sprayed to the point of run-off on cucumber seedlings. The following day, 1/2 inch of simulated rainfall is applied to the foliage of the plants. When the foliage is dry, the plants are inoculated with a spore suspension of the fungus Erysiphe cichoracearum and incubated in a growth room for 7 days. Disease ratings are then made.

Erysiphe cichoracearum [4] = assay: Control of cucumber powdery mildew in a preventive test (Example 16); assay type: in vivo; settings: 20 ppm, cucumber seedlings, incubated 7 days
Procedure: as §2, with “naphthalane” for “naphthalene”, “day,” for “day, 1/2 inch of simulated rainfall is applied to the foliage of the plants. When the foliage is dry,”

[5] = tested on: Puccinia graminis var. tritici; assay type: in vivo; settings: 20 ppm, wheat seedlings, 3500 foot candles xenon arc 16 hours, 24 hours humidity chamber then 7 days
Venturia inaequalis [6] = assay: Control of apple scab in a residual wash-off test (Example 14); assay type: in vivo; settings: 20 ppm, apple seedlings, 1/2 inch simulated rainfall, incubated 10-12 days
Procedure: as §2, with “apple” for “cucumber”, “Venturia inaequalis” for “Erysiphe cichoracearum”, “10-12” for “7”, “made. […] Phytotoxicity in the form of foliar burn was observed on some of the plants in association with disease control.” for “made.”

Phytophthora infestans = settings: 5 ppm, tomato seedlings, incubated 4 days
[7] = tested on: Puccinia graminis var. tritici; assay type: in vivo; settings: 20 ppm, wheat seedlings, 1/2 inch simulated rainfall, 24 hours humidity chamber then 7 days
Helminthosporium oryzae = assay: Control of rice Helminthosporium in a seed treatment test (Example 11); settings: 1.3 g per kilogram of seed, 18 days, rating based on percent germination
Procedure: Rice seed infected with Helminthosporium oryzae are treated with compounds of this invention at a rate of 1.3 g per kilogram of seed. This is accomplished by soaking infected seed for 1 minute in a suspension of the indicated compound dissolved in a solution containing 4% glycerine, 4% water, 0.02% Tween®20*, and 92% acetone. Treated seeds are placed on moist blotters and enclosed in plastic bags for 18 days at which time disease ratings are made based on percent germination.
*Tween®20 is a trademark of ICI Americas, Inc. and consists of polyoxytheylene (20) sorbitan monolaurate.

Rhizoctonia solani = Rhizoctonia solani control on cotton, simulated in-the-row soil application (Example 12); assay type: in vivo; settings: 15 kg/ha, 8 days
Source text: Rhizoctonia solani-infested soil was placed in a 900 cc cup. Compounds of this invention were mixed at a rate of 15 kg/ha in a section 2" wide×2" deep×4" long to simulate an in-the-row application. Five cotton seeds were planted in the treated soil. After 8 days, the cotton plants were removed and rated for disease control.

Venturia inaequalis [8] = assay: Control of apple scab in a preventive test (Example 13); assay type: in vivo; settings: 20 ppm, apple seedlings, incubated 10-12 days
Procedure: as §2, with “apple” for “cucumber”, “day,” for “day, 1/2 inch of simulated rainfall is applied to the foliage of the plants. When the foliage is dry,”, “Venturia inaequalis” for “Erysiphe cichoracearum”, “10-12” for “7”, “made. […] Phytotoxicity in the form of foliar burn was observed on some of the plants in association with disease control.” for “made.”

Venturia inaequalis [9] = assay: Control of apple scab in a photostability test (Example 15); assay type: in vivo; settings: 20 ppm, apple seedlings, 3500 foot candles xenon arc 16 hours, incubated 10-12 days
Procedure: as §1, with “on apple” for “in cucumber”, “Venturia inaequalis” for “Erysiphe cichoracearum”, “10-12” for “7”, “made. As shown in the following table, most of the compounds of this invention provided good disease control as the treated plants had fewer apple scab lesions in contrast to untreated plants which were covered with scab lesions. Phytotoxicity in the form of foliar burn was observed on some of the plants in association with disease control.” for “made.”

house fly adults = assay: House fly adult mortality (Example 10); assay type: in vivo, Musca domestica (house fly); settings: concentration .01 (unit not given), acetone dispersion, 1 day, 25°±2° C., 50% RH
Procedure: Twenty-five house fly adults are secured in screened stainless steel ring cages and treated with acetone dispersions of N-[2-chloro-5-(trifluoromethyl)-phenyl]-N-[2,4-dinitro-6-(trifluoromethyl)phenyl]-3-nitro-2-pyridinesulfenamide at the indicated concentrations. The stock dispersion is prepared by dissolving appropriately weighed quantities of active ingredient in predetermined quantities of acetone. Further diluting with acetone yields the desired concentrations. After treating, the units are kept in a room maintained at 25°±2° C., 50% RH. Results are recorded at the end of 1 day.

two spotted mites = assay: Two-spotted mite mortality on red kidney bean plants (Example 9); assay type: in vivo; settings: Tetranychus urticae, 48 h, read-out: % Mortality (2 days)
Procedure: Test units consisted of plant pots containing two red kidney bean plants in the two-leaf stage per pot. The plants were infested with two spotted mites and sprayed to run-off with dispersions of N-[2-chloro-5-(trifluoromethyl)phenyl]-N-[2,4-dinitro-6-(trifluoromethyl)phenyl]-3-nitro-2-pyridinesulfenamide at the indicated concentrations. Dispersions were made by dissolving weighed quantities of the active ingredients in 10 ml of acetone and then diluting to volume with water containing 1:3000 of a surfactant, DuPonol® (a tradename of E. I. du Pont de Nemours & Co. for sodium alcohol sulfonate). Mortality was evaluated two days after spraying.

SMILES | % Control Wheat Rust in a Preventive Test [1] [%] | % Control Cucumber Powdery Mildew in a Photostability Test (Erysiphe cichoracearum [2]) [%] | % Control Cucumber Powdery Mildew in a Residual Wash-Off Test (Erysiphe cichoracearum [3]) [%] | % Control Cucumber Powdery Mildew in a Preventive Test (Erysiphe cichoracearum [4]) [%] | % Control Wheat Rust in a Photostability Test [5] [%] | % Control of Apple Scab in a Residual Wash-Off Test (Venturia inaequalis [6]) [%] | % Control Tomato Late Blight in a Preventive Test (Phytophthora infestans) [%] | % Control Wheat Rust in a Residual Wash-off Test [7] [%] | % Control of rice Helminthosporium in a seed treatment test (Helminthosporium oryzae) [%] | % Rhizoctonia solani control (Rhizoctonia solani) [%] | % Control Apple Scab in a Preventive Test (Venturia inaequalis [8]) [%] | % Control Apple Scab in a Photo-stability test (Venturia inaequalis [9]) [%] | % Mortality (house fly adults) [%] | mortality at 0.00025 % (two spotted mites) [%]
O=[N+]([O-])c1cc([N+](=O)[O-])c(N(Sc2nc3ccccc3s2)c2cc(C(F)(F)F)ccc2Cl)c(C(F)(F)F)c1 [N-[2-chloro-5-(trifluoromethyl)phenyl]-N-[2,4-dinitro-6-(trifluoromethyl)phenyl]-2-benzothiazolesulfenamide] | 97 | 15 | 68 | 60 | 83 | 43 | 0 | 85 | 0 | 50 | 43 | 15 | – | –
O=[N+]([O-])c1cc([N+](=O)[O-])c(N(Sc2ncccc2[N+](=O)[O-])c2cc(C(F)(F)F)ccc2Cl)c(C(F)(F)F)c1 [N-[2-chloro-5-(trifluoromethyl)phenyl]-N-[2,4-dinitro-6-(trifluoromethyl)phenyl]-3-nitro-2-pyridinesulfenamide] | 80 | 94 | 90 | 100 | 95 | 100 | 70 | 98 | 90 | 100 | 100 | 70 | 90 | 100
